Assay results taken from patent US10131652B2, “Pyrimidinyloxy benzene derivatives as herbicides” (E. I. DU PONT DE NEMOURS AND COMPANY, priority 2014, dated 2018).

Assays:
Experiment in all cases: Test D pre-/postemergence plant response
Format in all cases: in vivo
[1] = tested on: pigweed (Amaranthus retroflexus); settings: Postemergence
In short: (§1)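 Seeds sown in loam–sand blend got preemergence sprays of test chemicals in a non-phytotoxic solvent with surfactant; postemergence sprays went on plants at 1- to 4-leaf stage (2 to 18 cm) in peat/vermiculite medium. After 13 to 15 days in greenhouse, visual injury versus controls scored 0 (no effect) to 100 (complete control).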

[2] = tested on: blackgrass (Alopecurus myosuroides); settings: Postemergence; for Plant response rating, Blackgrass: scale 0 to 100, 0 no effect, 100 complete control
In short: as §1

[3] = tested on: winter wheat (Triticum aestivum); settings: Postemergence
In short: as §1

[4] = tested on: corn (Zea mays); settings: Postemergence; for Plant response rating, Corn: scale 0 to 100, 0 no effect, 100 complete control
In short: as §1

[5] = tested on: giant foxtail (Setaria faberii); settings: Postemergence; for Plant response rating, Foxtail, Giant: scale 0 to 100, 0 no effect, 100 complete control
In short: as §1

[6] = tested on: soybean (Glycine max); settings: Postemergence
In short: as §1

[7] = tested on: large (Lg) crabgrass (Digitaria sanguinalis); settings: Postemergence; for Plant response rating, Crabgrass, Large: scale 0 to 100, 0 no effect, 100 complete control
In short: as §1

[8] = tested on: waterhemp (common waterhemp, Amaranthus rudis); settings: Postemergence
In short: as §1

[9] = tested on: morningglory (Ipomoea coccinea); settings: Postemergence
In short: as §1

[10] = tested on: lambsquarters (Chenopodium album); settings: Postemergence
In short: as §1

[11] = tested on: galium (catchweed bedstraw, Galium aparine); settings: Postemergence; for Plant response rating, Galium: scale 0 to 100, 0 no effect, 100 complete control
In short: as §1

[12] = tested on: Italian ryegrass (Lolium multiflorum); settings: Postemergence
In short: as §1

[13] = tested on: oilseed rape (Brassica napus); settings: Postemergence
In short: as §1

[14] = tested on: johnsongrass (Sorghum halepense); settings: Postemergence; for Plant response rating, Johnsongrass: scale 0 to 100, 0 no effect, 100 complete control
In short: as §1

[15] = tested on: ragweed (common ragweed, Ambrosia elatior); settings: Postemergence
In short: as §1

[16] = tested on: velvetleaf (Abutilon theophrasti); settings: Postemergence
In short: as §1

[17] = tested on: yellow nutsedge (Cyperus esculentus); settings: Postemergence
In short: as §1

[18] = tested on: barnyardgrass (Echinochloa crus-galli); settings: Postemergence; for Plant response rating, Barnyardgrass: scale 0 to 100, 0 no effect, 100 complete control
In short: as §1

[19] = 31 g ai/ha, scale 0 to 100 (0 no effect, 100 complete control)
[20] = 62 g ai/ha, scale 0 to 100, 0 no effect, 100 complete control
[21] = 125 g ai/ha, scale 0 to 100, 0 no effect, 100 complete control

FC(Cl)(Cl)c1cc(-c2ccccc2Oc2ncc(Cl)cn2)no1 [Compound 198]
Plant response rating (scale 0 to 100), Pigweed ([1]; 16 g ai/ha): 85 | Pigweed plant response rating [1, 19]: 98 | Pigweed plant response rating [1, 20]: 90 | Plant response rating, Pigweed [1, 21]: 100 | Plant response rating (scale 0 to 100), Blackgrass ([2]; 16 g ai/ha): 5 | Blackgrass plant response rating [2, 19]: 5 | Plant response rating, Blackgrass ([2]; 62 g ai/ha): 10 | Plant response rating, Blackgrass ([2]; 125 g ai/ha): 15 | Plant response rating (scale 0 to 100), Wheat ([3]; 16 g ai/ha): 0 | Wheat plant response rating [3, 19]: 0 | Wheat plant response rating [3, 20]: 5 | Plant response rating, Wheat [3, 21]: 5 | Plant response rating (scale 0 to 100), Corn ([4]; 16 g ai/ha): 5 | Corn plant response rating [4, 19]: 10 | Plant response rating, Corn ([4]; 62 g ai/ha): 15 | Plant response rating, Corn ([4]; 125 g ai/ha): 15 | Plant response rating (scale 0 to 100), Foxtail, Giant ([5]; 16 g ai/ha): 10 | Foxtail, Giant plant response rating [5, 19]: 15 | Plant response rating, Foxtail, Giant ([5]; 62 g ai/ha): 15 | Plant response rating, Foxtail, Giant ([5]; 125 g ai/ha): 25 | Plant response rating (scale 0 to 100), Soybean ([6]; 16 g ai/ha): 10 | Soybean plant response rating [6, 19]: 25 | Soybean plant response rating [6, 20]: 30 | Plant response rating, Soybean [6, 21]: 60 | Plant response rating (scale 0 to 100), Crabgrass, Large ([7]; 16 g ai/ha): 10 | Crabgrass, Large plant response rating [7, 19]: 15 | Plant response rating, Crabgrass, Large ([7]; 62 g ai/ha): 20 | Plant response rating, Crabgrass, Large ([7]; 125 g ai/ha): 30 | Plant response rating (scale 0 to 100), Waterhemp ([8]; 16 g ai/ha): 85 | Waterhemp plant response rating [8, 19]: 85 | Waterhemp plant response rating [8, 20]: 95 | Plant response rating, Waterhemp [8, 21]: 98 | Plant response rating (scale 0 to 100), Morningglory ([9]; 16 g ai/ha): 55 | Morningglory plant response rating [9, 19]: 55 | Morningglory plant response rating [9, 20]: 80 | Plant response rating, Morningglory [9, 21]: 85 | Plant response rating (scale 0 to 100), Lambsquarters ([10]; 16 g ai/ha): 10 | Lambsquarters plant response rating [10, 19]: 55 | Lambsquarters plant response rating [10, 20]: 70 | Plant response rating, Lambsquarters [10, 21]: 75 | Plant response rating (scale 0 to 100), Galium ([11]; 16 g ai/ha): 70 | Galium plant response rating [11, 19]: 75 | Plant response rating, Galium ([11]; 62 g ai/ha): 98 | Plant response rating, Galium ([11]; 125 g ai/ha): 98 | Plant response rating (scale 0 to 100), Ryegrass, Italian ([12]; 16 g ai/ha): 0 | Ryegrass, Italian plant response rating [12, 19]: 0 | Ryegrass, Italian plant response rating [12, 20]: 10 | Plant response rating, Ryegrass, Italian [12, 21]: 10 | Plant response rating (scale 0 to 100), Oilseed Rape ([13]; 16 g ai/ha): 30 | Oilseed Rape plant response rating [13, 19]: 50 | Oilseed Rape plant response rating [13, 20]: 60 | Plant response rating, Oilseed Rape [13, 21]: 90 | Plant response rating (scale 0 to 100), Johnsongrass ([14]; 16 g ai/ha): 5 | Johnsongrass plant response rating [14, 19]: 20 | Plant response rating, Johnsongrass ([14]; 62 g ai/ha): 35 | Plant response rating, Johnsongrass ([14]; 125 g ai/ha): 35 | Plant response rating (scale 0 to 100), Ragweed ([15]; 16 g ai/ha): 30 | Ragweed plant response rating [15, 19]: 55 | Ragweed plant response rating [15, 20]: 55 | Plant response rating, Ragweed [15, 21]: 60 | Plant response rating (scale 0 to 100), Velvetleaf ([16]; 16 g ai/ha): 50 | Velvetleaf plant response rating [16, 19]: 45 | Velvetleaf plant response rating [16, 20]: 55 | Plant response rating, Velvetleaf [16, 21]: 55 | Plant response rating (scale 0 to 100), Nutsedge, Yellow ([17]; 16 g ai/ha): 5 | Nutsedge, Yellow plant response rating [17, 19]: 5 | Nutsedge, Yellow plant response rating [17, 20]: 15 | Plant response rating, Nutsedge, Yellow [17, 21]: 10 | Plant response rating (scale 0 to 100), Barnyardgrass ([18]; 16 g ai/ha): 10 | Barnyardgrass plant response rating [18, 19]: 10 | Plant response rating, Barnyardgrass ([18]; 62 g ai/ha): 20 | Plant response rating, Barnyardgrass ([18]; 125 g ai/ha): 35
